Measured values as given in patent US6767991B1, “Hepatitis C inhibitor peptides” (priority 1997, dated 2004).
*1 amine or outer side, *2 acyl side, *3 side chain or, on linkers, in order; H or OH if unused. Where a SMILES comes first, the peptide text is derived from it. [ ]: non-standard residue; d: D form. The star is where a group is joined. CH2(1-naphthyl) = c1ccc2c(C*)cccc2c1; Glutaryl = O=C(CCCC(=O)[*:2])[*:1]; Hyp = O=C(O)[C@@H]1C[C@@H](O)CN1; Chg = N[C@H](C(=O)O)C1CCCCC1; Suc = O=C(CCC(=O)[*:2])[*:1]; Ac5c = NC1(C(=O)O)CCCC1; Nva = CCC[C@H](N)C(=O)O; X1 = c1ccc2cc(C*)ccc2c1; Ac3c = NC1(C(=O)O)CC1; OBn = c1ccc(CO*)cc1; X2 = Brc1cccc(C*)c1; X3 = CC(=O)OCC(=O)*; X6 = Ic1cccc(C*)c1; Bn = c1ccc(C*)cc1

target: T1, HCV NS3 protease type 1b/NS4A cofactor peptide (Hepatitis C virus genotype 1b, UniProt P26663); assay: Recombinant HCV NS3 protease/NS4A cofactor peptide radiometric assay; assay type: biochemical, HCV genotype 1b; conditions: Table 1, unmarked values: NS3 protease/NS4A cofactor peptide radiometric assay; read-out: IC50
T1 construct: recombinant HCV NS3 protease (amino acid 1027 to 1206) was cloned in the pET11d bacterial expression vector; made in house; host or cells: E. coli BL21(DE3)pLysS
Description: Recombinant HCV NS3 Protease/NS4A Cofactor Peptide Radiometric Assay.
The enzyme was stored at −80° C., thawed on ice and diluted just prior to use in the assay buffer containing the NS4A cofactor peptide.
The substrate used for the NS3 protease/NS4A cofactor peptide radiometric assay, DDIVPC-SMSYTW [SEQ. ID NO. 2], is cleaved between the cysteine and the serine residues by the enzyme. The sequence DDIVPC-SMSYTW [SEQ. ID NO. 2] corresponds to the NS5A/NS5B natural cleavage site in which the cysteine residue in P2 has been substituted for a proline. The peptide substrate DDIVPC-SMSYTW [SEQ. ID NO. […] ID NO. […] [SEQ. ID NO. 5] (molar ratio enzyme: cofactor 1:100) in the absence or presence of inhibitors. The separation of substrate from products is performed by adding avidin-coated agarose beads to the assay mixture followed by filtration. […] ID NO. 4] product found in the filtrate allows for the calculation of the percentage of substrate conversion and of the percentage of inhibition.
Tris and Tris-HCl (UltraPure) were obtained from Gibco-BRL. Glycerol (UltraPure), MES and BSA were purchased from Sigma. TCEP was obtained from Pierce, DMSO from Aldrich and NaOH from Anachemia.
Assay buffer: 50 mM Tris HCl, pH 7.5, 30% (w/v) glycerol, 1 mg/mL BSA, 1 mM TCEP (TCEP added just prior to use from a 1 M stock solution in water).
Substrate: […] [SEQ. ID NO.
ID NO. 3] (˜1 nM final concentration).
The assay was performed in a 96-well polypropylene plate from Costar. Each well contained:
20 μL substrate/tracer in assay buffer;
10 μL±inhibitor in 20% DMSO/assay buffer;
10 μL NS3 protease 1b/NS4 cofactor peptide (molar ratio 1:100).
Blank (no inhibitor and no enzyme) and control (no inhibitor) were also prepared on the same assay plate.
The enzymatic reaction was initiated by the addition of the enzyme/NS4A peptide solution and the assay mixture was incubated for 40 min at 23° C. under gentle agitation. Ten (10) μL of 0.5N NaOH were added and 10 μL 1 M MES, pH 5.8 were added to quench the enzymatic reaction.
Twenty (20) μL of avidin-coated agarose beads (purchased from Pierce) were added in a Millipore MADP N65 filtration plate. The quenched assay mixture was transferred to the filtration plate, and incubated for 60 min at 23° C. under gentle agitation.
The plates were filtered using a Millipore MultiScreen Vacuum Manifold Filtration apparatus, and 40 μL of the filtrate was transferred in an opaque 96-well plate containing 60 μL of scintillation fluid per well.
The % inhibition was calculated with the following equation:
100-[(countsinh-countsblank)/(countsctl-countsblank)×100]

T1 sequence (P26663 1027-1206, other chains not shown): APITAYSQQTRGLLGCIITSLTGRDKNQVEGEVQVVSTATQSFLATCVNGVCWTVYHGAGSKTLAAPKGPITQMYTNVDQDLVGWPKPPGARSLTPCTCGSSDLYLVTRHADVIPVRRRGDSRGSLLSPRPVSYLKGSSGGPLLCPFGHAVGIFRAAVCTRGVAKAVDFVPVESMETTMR

SMILES | IC50 [µM]
CC[C@H](C)[C@H](NC(=O)[C@H](CC(=O)O)NC(=O)CCC(=O)O)C(=O)N[C@H](C(=O)N1CCC[C@H]1C(=O)N[C@@H](CS)C(=O)O)C(C)C [compound 103] (Suc-DIVPC-OH) | 26
CC[C@H](C)[C@H](NC(=O)[C@@H](CC(=O)O)NC(=O)[C@H](CC(=O)O)NC(C)=O)C(=O)N[C@H](C(=O)N1CCC[C@H]1C(=O)N[C@@H](CS)C(=O)O)C(C)C [compound 104] (Ac-D[dD]IVPC-OH) | 8.5
CCC[C@H](NC(=O)[C@@H]1CCCN1C(=O)[C@@H](NC(=O)[C@@H](NC(=O)[C@H](CC(=O)O)NC(=O)CCC(=O)O)[C@@H](C)CC)C(C)C)C(=O)O [compound 130] (Suc-DIVP[Nva]-OH) | 123
CC(=O)N[C@@H](CC(=O)O)C(=O)N[C@@H](CCC(=O)O)C(=O)N[C@H](C(=O)N[C@H](C(=O)N[C@@H](CCC(=O)OCc1ccccc1)C(=O)NC1(C(=O)O)CC1)C(C)C)C1CCCCC1 [compound 133] (Ac-DE[Chg]VE(OBn)[Ac3c]-OH) | 39
CC[C@H](C)[C@H](NC(=O)[C@H](CC(=O)O)NC(=O)[C@H](CC(=O)O)NC(C)=O)C(=O)N[C@H](C(=O)N1CCC[C@H]1C(=O)NC1(C(=O)O)CCCC1)C(C)C [compound 125] (Ac-DDIVP[Ac5c]-OH) | 210

same assay, conditions: Table 2, unmarked values: NS3 protease/NS4A cofactor peptide radiometric assay; read-out: IC50

SMILES | IC50 [µM]
CCC[C@H](NC(=O)[C@@H]1C[C@@H](OCc2ccccc2)CN1C(=O)[C@@H](NC(=O)[C@@H](NC(=O)[C@@H](CCC(=O)O)NC(=O)[C@H](CC(=O)O)NC(C)=O)C1CCCCC1)C(C)C)C(=O)O [compound 211] (Ac-D[dE][Chg]V[Hyp](Bn)[Nva]-OH) | 0.12
CCC[C@H](NC(=O)[C@@H]1C[C@@H](OCc2cccc3ccccc23)CN1C(=O)[C@@H](NC(=O)[C@@H](NC(=O)CCCC(=O)O)[C@@H](C)CC)C(C)C)C(=O)O [compound 222] (Glutaryl-IV[Hyp](CH2(1-naphthyl))[Nva]-OH) | 20
CCC[C@H](NC(=O)[C@@H]1C[C@@H](OCc2cccc3ccccc23)CN1C(=O)[C@@H](NC(=O)[C@@H](NC(=O)[C@H](CC(=O)O)NC(=O)[C@H](CC(=O)O)NC(C)=O)[C@@H](C)CC)C(C)C)C(=O)O [compound 207] (Ac-DDIV[Hyp](CH2(1-naphthyl))[Nva]-OH) | 0.39
CC[C@H](C)[C@H](NC(C)=O)C(=O)N[C@H](C(=O)N1C[C@H](OCc2cccc3ccccc23)C[C@H]1C(=O)NC1(C(=O)O)CC1)C(C)C [compound 262] (Ac-IV[Hyp](CH2(1-naphthyl))[Ac3c]-OH) | 40
CC[C@H](C)[C@H](NC(=O)[C@H](CCC(=O)O)NC(=O)[C@H](CC(=O)O)NC(C)=O)C(=O)N[C@H](C(=O)N1C[C@H](OCc2cccc(I)c2)C[C@H]1C(=O)NC1(C(=O)O)CC1)C(C)C [compound 233] (Ac-DEIV[Hyp](X6)[Ac3c]-OH) | 0.14
CC(C)[C@H](NC(=O)[C@@H](NC(=O)CCCC(=O)O)C1CCCCC1)C(=O)N1C[C@H](OCc2cccc3ccccc23)C[C@H]1C(=O)NC1(C(=O)O)CC1 [compound 226] (Glutaryl-[Chg]V[Hyp](CH2(1-naphthyl))[Ac3c]-OH) | 0.76
CC(=O)N[C@H](C(=O)N[C@H](C(=O)N1C[C@H](OCc2cccc(Br)c2)C[C@H]1C(=O)NC1(C(=O)O)CC1)C(C)C)C1CCCCC1 [compound 268] (Ac-[Chg]V[Hyp](X2)[Ac3c]-OH) | 24
CC(=O)N[C@H](C(=O)N[C@H](C(=O)N1C[C@H](OCc2cccc3ccccc23)C[C@H]1C(=O)NC1(C(=O)O)CC1)C1CCCCC1)C1CCCCC1 [compound 231] (Ac-[Chg][Chg][Hyp](CH2(1-naphthyl))[Ac3c]-OH) | 2.6
CC[C@H](C)[C@H](NC(=O)[C@@H](CCC(=O)O)NC(=O)[C@H](CC(=O)O)NC(C)=O)C(=O)N[C@H](C(=O)N1C[C@H](OCc2ccccc2)C[C@H]1C(=O)N[C@@H](CS)C(=O)O)C(C)C [compound 260] (Ac-D[dE]IV[Hyp](Bn)C-OH) | 0.18
CC(=O)OCC(=O)N[C@H](C(=O)N[C@H](C(=O)N1C[C@H](OCc2cccc3ccccc23)C[C@H]1C(=O)NC1(C(=O)O)CC1)C1CCCCC1)C1CCCCC1 [compound 232] (X3-[Chg][Chg][Hyp](CH2(1-naphthyl))[Ac3c]-OH) | 1.4
CCC[C@H](NC(=O)[C@@H]1C[C@@H](OCc2ccc3ccccc3c2)CN1C(=O)[C@@H](NC(=O)[C@@H](NC(=O)[C@@H](CCC(=O)O)NC(=O)[C@H](CC(=O)O)NC(C)=O)[C@@H](C)CC)C(C)C)C(=O)O [compound 213] (Ac-D[dE]IV[Hyp](X1)[Nva]-OH) | 0.036
CC(=O)N[C@H](C(=O)N[C@H](C(=O)N1C[C@H](OCc2ccccc2)C[C@H]1C(=O)NC1(C(=O)O)CC1)C1CCCCC1)C1CCCCC1 [compound 234] (Ac-[Chg][Chg][Hyp](Bn)[Ac3c]-OH) | 41
CC(=O)N[C@H](C(=O)N[C@H](C(=O)N1C[C@H](Oc2ccc(I)cc2)C[C@H]1C(=O)NC1(C(=O)O)CC1)C(C)C)C1CCCCC1 [compound 249] | 9.7
